The record followed here is patent US11584756B2, “Heterocyclic compounds as BET inhibitors” (NUVATION BIO INC., priority 2019, dated 2023).

The target of one assay is BRD4-1 (Homo sapiens (Human), UniProt O60885). Put plainly: Bromodomain and Extraterminal Domain (BET) binding assay, BRD4-1. To be noted: histone H4 peptide (1-21) K5/8/12/16Ac-biotin ligand; 20 nM protein, 20 nM ligand. The procedure: (§1) The bromodomain binding assays were performed by Reaction Biology Corp., Malvern, Pa., USA (www.reactionbiology.com). The BET binding assays were conducted in 384 well microplates in assay buffer (50 mM HEPES-HCl, pH 7.5, 100 mM NaCl, 1 mg/ml BSA, 0.05% CHAPS, and 0.5% DMSO) with compounds added as DMSO stocks at a single concentration or with 10-point dose response titrations. BET protein or assay buffer were delivered to the appropriate wells of the microplate. Test compound was then delivered by acoustic technology via a Labcyte Echo550 liquid handler. The microplate was centrifuged for 5 min and pre-incubated for 30 min at RT with gentle shaking. The ligand (histone H4 peptide (1-21) K5/8/12/16Ac-biotin) was delivered and the microplate was again centrifuged for 5 min and allowed to incubate for 30 min at RT with gentle shaking. Donor beads were then added in the absence of light and the microplate was centrifuged and gently shaken. After 5 min, acceptor beads were added in the absence of light and the microplate was centrifuged and gently shaken in the dark for 60 min. The microplate was read using a Perkin Elmer EnSpire Alpha plate reader (λ Ex/λ Em=680/520-620 nm). Percent inhibition was calculated relative to positive and negative controls on a per plate basis. For titration experiments, IC50 values were determined by fitting the percent inhibition versus compound concentration.

Another assay addresses BRD4-2 (Homo sapiens (Human), UniProt O60885). In words: Bromodomain and Extraterminal Domain (BET) binding assay, BRD4-2. The following applies: histone H4 peptide (1-21) K5/8/12/16Ac-biotin ligand; 130 nM protein, 70 nM ligand. The procedure:
as §1

Assay [1] has as its system MV-4-11 human acute myeloid leukemia cell line. In words: Cell viability assay in MV-4-11 cells (Cell Titer-Glo). The following applies: MV4-11, 72 hrs incubation. In kind it is cell-based. The procedure: The effects of test compounds were studied in a cell viability assay in the MV-4-11 human acute myeloid leukemia cell line. The cells were harvested during the logarithmic growth period and counted. Cells were seeded at a count of 15000 cells per well/100 μl. After seeding, cells were incubated at 37° C. 5% CO2 for 1 hr. Cells were treated with test compounds at 8 concentrations within a desired concentration range (e.g. 5 nM-10 μM) for generation of dose response curves by preparing serial dilutions of the test compound in DMSO which were further diluted with culture medium and then added to each well. The plate was further incubated for another 72 hrs in a humidified incubator at 37° C. and 5% CO2. The assay was terminated by addition of Cell Titer-Glo reagent (Promega, Madison, Wis.) at ¼ the volume of total medium per well. Contents were mixed, the plate was incubated for 10 min at room temperature and luminescence was measured. Cell viability data were plotted using GraphPad Prism (GraphPad Software, Inc., San Diego, Calif.). In addition, a nonlinear regression model with a sigmoidal dose response and variable slope within GraphPad Prism was used to calculate the IC50 value of individual test compounds.

Assay [2] deals with IEC-6 rat intestinal epithelial cell line. Put plainly: Cell viability assay in IEC-6 cells (resazurin), potential toxicity to non-cancerous cells. Type of assay: cell-based. The following applies: Protocol B: 4000 cells per well, 48 hrs incubation with test compound, read-out: Protocol B IC50 (μM), cell viability in IEC-6 cells. The procedure: The effects of test compounds were also studied in the IEC-6 rat intestinal epithelial cell line to assess potential toxicity to non-cancerous cells. The cells were harvested during the logarithmic growth period and counted. In Protocol A, cells were seeded at a count of 3000 cells per well/100 μl in a 96-well plate. After seeding, cells were incubated at 37° C. 5% CO2 for 24 hr. Cells were treated with test compounds at 8 concentrations within a desired concentration range (e.g. 5 nM-10 μM) for generation of dose response curves by preparing serial dilutions of the test compound in DMSO which were further diluted with culture medium and then added to each well. The plate was further incubated for another 96 hrs in humidified incubator at 37° C. and 5% CO2. The assay was terminated by addition of resazurin (#R7017, Sigma). The plate was incubated for 4 hr at 37° C. 5% CO2 and fluorescence was measured using excitation and emission wavelengths of 535 and 590 nm, respectively. Cell viability data were plotted using GraphPad Prism (GraphPad Software, Inc., San Diego, Calif.). In addition, a nonlinear regression model with a sigmoidal dose response and variable slope within GraphPad Prism was used to calculate the IC50 value of individual test compounds. Protocol B was the same as Protocol A except that cells were seeded at a count of 4000 cells per well/100 μl in a 96-well plate, and the incubation with test compound was for 48 hrs instead of 96 hrs.

In the case of `CCS(=O)(=O)Nc1ccc(Oc2c(C)cc(F)cc2C)c(-c2cn(C)c(=O)c3sc(-c4nnc(C)o4)cc23)c1` [Compound 10, N-(4-(4-fluoro-2,6-dimethylphenoxy)-3-(6-methyl-2-(5-methyl-1,3,4-oxadiazol-2-yl)-7-oxo-6,7-dihydrothieno[2,3-c]pyridin-4-yl)phenyl)ethanesulfonamide], the IC50 on BRD4-1 was found to be 111 nM; on BRD4-2 it was 3.4 nM; in assay [1], 0.126 µM; in assay [2] it was 0.78 µM.
In the case of `Cc1nnc(-c2cc3c(-c4cc(C(C)(C)O)ccc4Oc4c(C)cc(F)cc4C)cn(C)c(=O)c3s2)o1` [Compound 13, 4-(2-(4-fluoro-2,6-dimethylphenoxy)-5-(2-hydroxypropan-2-yl)phenyl)-6-methyl-2-(5-methyl-1,3,4-oxadiazol-2-yl)thieno[2,3-c]pyridin-7(6H)-one], the IC50 was found to be 4940 nM on BRD4-1, 9 nM on BRD4-2, 0.54 µM in assay [1] and 2.5 µM in assay [2].
On to `Cn1cc(-c2cc(C(C)(C)O)ccc2Oc2ccc(F)cc2F)c2cc(C(=O)N3CCCC(F)(F)C3)sc2c1=O` [Compound 23, 4-(2-(2,4-difluorophenoxy)-5-(2-hydroxypropan-2-yl)phenyl)-2-(3,3-difluoropiperidine-1-carbonyl)-6-methylthieno[2,3-c]pyridin-7(6H)-one], for which the IC50 at BRD4-1 was determined as 1120 nM; at BRD4-2, 18 nM; in assay [1] it was 0.768 µM; in assay [2], 1.62 µM.
As to `Cn1cc(-c2cc(C(C)(C)O)ccc2Oc2ccc(F)cc2F)c2cc(C(=O)NC3CC3)sc2c1=O` [Compound 145, N-cyclopropyl-4-(2-(2,4-difluorophenoxy)-5-(2-hydroxypropan-2-yl)phenyl)-6-methyl-7-oxo-6,7-dihydrothieno[2,3-c]pyridine-2-carboxamide], the IC50 came to 601 nM at BRD4-1, 7 nM on BRD4-2, 0.245 µM in assay [1] and 0.691 µM in assay [2].
The like results for `CCNC(=O)c1cc2c(=O)n(C)cc(-c3cc(C(C)(C)O)ccc3Oc3c(C)cc(F)cc3C)c2s1` [Compound 146, N-ethyl-7-(2-(4-fluoro-2,6-dimethylphenoxy)-5-(2-hydroxypropan-2-yl)phenyl)-5-methyl-4-oxo-4,5-dihydrothieno[3,2-c]pyridine-2-carboxamide] were, in that order, 2920 nM, 2 nM, 0.084 µM and 0.729 µM.
As for `CCNC(=O)c1cc2c(-c3cc(NS(=O)(=O)CC)ccc3Oc3c(C)cccc3C)cn(C)c(=O)c2s1` [Compound 147, 4-(2-(2,6-dimethylphenoxy)-5-(ethylsulfonamido)phenyl)-N-ethyl-6-methyl-7-oxo-6,7-dihydrothieno[2,3-c]pyridine-2-carboxamide], the half-inhibitory concentration (IC50) on BRD4-1 worked out at 299 nM; on BRD4-2, 1.8 nM; in assay [1] it was 0.047 µM; in assay [2] it was 1.77 µM.
